In US9150579B2, “Selective PI3K delta inhibitors” (Rhizen Pharmaceuticals SA, priority 2012, dated 2015):
“Also recorded” adds a separate entry of the source.

Legend:
[1] = Metabolic stability in human liver microsomes; assay type: in vitro ADME
Protocol: (§1) Metabolic stability studies were conducted using mouse, rat, and human liver microsomes. The protocol for the studies with mouse, rat, and human liver microsomes (all from BD Gentest, USA) is provided below. In brief, 0.4 mg protein was preincubated with 2 mM NADPH (cofactor) in phosphate buffer (pH˜7.4) for 15 min at 37° C. and then added with 1 μM test item and incubated further for 60 minutes in triplicate. The reaction mixture was terminated with methanol containing an internal standard and centrifuged further to analyze the test item remaining in the supernatant by LC-MS/MS. The percent parent compound remaining was calculated in comparison with similar samples terminated at 0 minutes.

PI3K β = PI3K β (Homo sapiens (Human), UniProt P42338); experiment: Assay 1: Fluorescent (HTRF) determination of PI3K enzyme activity, beta; assay type: biochemical
Sequence of PI3K β (P42338 whole entry, canonical isoform): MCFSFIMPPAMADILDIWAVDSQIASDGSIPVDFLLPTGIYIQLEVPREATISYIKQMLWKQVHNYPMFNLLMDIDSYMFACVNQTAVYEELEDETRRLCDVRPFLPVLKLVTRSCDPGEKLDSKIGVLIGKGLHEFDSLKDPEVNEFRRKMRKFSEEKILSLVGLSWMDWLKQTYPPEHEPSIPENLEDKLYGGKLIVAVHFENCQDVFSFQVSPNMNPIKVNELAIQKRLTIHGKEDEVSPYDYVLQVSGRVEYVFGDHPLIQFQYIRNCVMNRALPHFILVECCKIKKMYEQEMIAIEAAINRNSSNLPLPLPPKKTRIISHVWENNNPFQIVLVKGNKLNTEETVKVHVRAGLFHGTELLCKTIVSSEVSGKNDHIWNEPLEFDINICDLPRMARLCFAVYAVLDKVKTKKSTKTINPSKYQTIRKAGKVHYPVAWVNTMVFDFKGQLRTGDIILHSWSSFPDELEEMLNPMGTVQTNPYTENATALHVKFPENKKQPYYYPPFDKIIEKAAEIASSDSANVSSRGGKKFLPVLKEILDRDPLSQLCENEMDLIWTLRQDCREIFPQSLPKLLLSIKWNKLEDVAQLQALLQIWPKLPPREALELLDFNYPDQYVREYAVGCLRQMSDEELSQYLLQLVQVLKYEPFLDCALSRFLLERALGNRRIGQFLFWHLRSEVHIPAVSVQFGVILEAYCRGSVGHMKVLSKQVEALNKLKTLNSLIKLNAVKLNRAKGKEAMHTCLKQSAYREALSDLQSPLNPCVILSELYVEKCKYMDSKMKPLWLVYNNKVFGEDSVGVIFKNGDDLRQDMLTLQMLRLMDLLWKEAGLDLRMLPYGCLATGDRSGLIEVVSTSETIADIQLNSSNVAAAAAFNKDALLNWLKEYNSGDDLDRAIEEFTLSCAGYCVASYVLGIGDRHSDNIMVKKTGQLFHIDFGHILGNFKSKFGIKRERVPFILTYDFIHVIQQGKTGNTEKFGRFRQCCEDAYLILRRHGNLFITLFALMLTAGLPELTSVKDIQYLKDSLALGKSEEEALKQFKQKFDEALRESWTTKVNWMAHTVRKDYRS
Sequence of PI3K β (P27986 whole entry partner, canonical isoform): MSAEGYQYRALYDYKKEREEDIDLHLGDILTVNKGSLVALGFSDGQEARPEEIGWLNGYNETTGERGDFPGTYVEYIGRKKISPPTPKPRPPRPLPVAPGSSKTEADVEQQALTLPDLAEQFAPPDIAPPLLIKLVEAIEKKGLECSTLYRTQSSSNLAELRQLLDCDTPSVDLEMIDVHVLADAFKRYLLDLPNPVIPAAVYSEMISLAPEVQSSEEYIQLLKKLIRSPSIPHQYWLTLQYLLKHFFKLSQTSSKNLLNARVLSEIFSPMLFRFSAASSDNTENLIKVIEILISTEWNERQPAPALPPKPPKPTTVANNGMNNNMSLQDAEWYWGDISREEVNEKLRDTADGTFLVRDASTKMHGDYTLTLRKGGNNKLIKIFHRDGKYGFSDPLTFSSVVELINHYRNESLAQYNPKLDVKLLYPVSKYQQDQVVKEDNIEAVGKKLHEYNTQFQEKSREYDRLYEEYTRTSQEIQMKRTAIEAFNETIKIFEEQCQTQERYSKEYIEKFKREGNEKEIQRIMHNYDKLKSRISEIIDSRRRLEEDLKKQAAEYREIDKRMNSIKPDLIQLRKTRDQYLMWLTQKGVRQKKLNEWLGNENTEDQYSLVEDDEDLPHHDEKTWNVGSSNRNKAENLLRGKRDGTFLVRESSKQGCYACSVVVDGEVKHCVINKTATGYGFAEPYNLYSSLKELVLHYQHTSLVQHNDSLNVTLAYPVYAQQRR
Protocol: (§2) The homogenous time resolved fluorescence (HTRF) assay allows detection of 3,4,5-triphosphate (PIP3) formed as a result of phosphorylation of phosphotidylinositol 4,5-biphosphate (PIP2) by PI3K isoforms such as α, β, γ or δ.
(§3) PI3K isoform activity for α, β, γ or δ was determined using a PI3K human HTRF™ Assay Kit (Millipore, Billerica, Mass.) with modifications. All incubations were carried out at room temperature. […] After the initial incubation, 5 μl/well of 400 μM ATP was added and incubated for an additional 30 minutes. Reaction was terminated by adding 5 μl/well stop solution (Millipore, Billerica, Mass.). Five microliters of detection mix (Millipore, Billerica, Mass.) were then added to each well and was incubated for 6-18 h in the dark.

[2] = Metabolic stability in mouse liver microsomes; assay type: in vitro ADME; conditions: 1 μM test item, 60 minutes, NADPH
Protocol: as §1

leukemic cells = experiment: Assay 5: Apoptosis in leukemic cell lines (in situ Caspase 3 kit); assay type: cell-based; conditions: 24 hrs
Protocol: Apoptosis in leukemic cells was determined using an in situ Caspase 3 kit (Millipore, US) as outlined below: • Seed leukemic cells at a density of 1×10^6 cells/well in a 6 well plate • Add test compound/DMSO at desired concentrations • Incubate the plate for 24 hrs at 37° C. in 5% CO2 incubator • Collect cells in a 2 ml centrifuge tube • Add 1.6 μL of freshly prepared 5× FLICA reagent and mix cells by slightly flicking the tubes • Incubate tubes for 1 hour at 37° C. under 5% CO2 • Add 2 ml of 1× wash buffer to each tube and mix • Centrifuge cells at <400×g for 5 minutes at room temperature. • Carefully remove and discard supernatant, and gently vortex cell pellet to disrupt any cell-to-cell clumping. • Resuspend cell pellet in 300 ul of 1× wash buffer • Place 100 μL of each cell suspension into each of two wells of a black microtiter plate. Avoid creation of bubbles. • Read […] of each microwell using an excitation wavelength of 490 nm and an emission wavelength of 520 nm • Percent increase in caspase-3 activity manifested by an increase in fluorescence compared to the control blank is to be calculated.

[3] = test system: AML patient bone marrow leukemic cells; experiment: Assay 6-III: Cell proliferation analysis of AML patient bone marrow sample (MTS); assay type: cell-based, human
Protocol: 6-III: Cell proliferation analysis of AML patient bone marrow sample using MTS assay: Mononuclear cells were extracted by the Ficoll method and seeded in plates. The cells were treated by different compounds for 48 hrs and 72 hrs before they were analyzed by MTS assay following product instruction. Briefly, 20 μL of the MTS solution was added into each well containing the 100 μL cell suspension, followed by incubation for 4 hours at 37° C., in 95% humidity with presence of 5% CO2. The absorbance of 490 nm (A490) was read using SpectraMAX Plus microplate spectrophotometer.

PI3K α = PI3K α (Homo sapiens (Human), UniProt P42336); experiment: Assay 1: Fluorescent (HTRF) determination of PI3K enzyme activity, alpha; assay type: biochemical
Sequence of PI3K α (P42336 whole entry): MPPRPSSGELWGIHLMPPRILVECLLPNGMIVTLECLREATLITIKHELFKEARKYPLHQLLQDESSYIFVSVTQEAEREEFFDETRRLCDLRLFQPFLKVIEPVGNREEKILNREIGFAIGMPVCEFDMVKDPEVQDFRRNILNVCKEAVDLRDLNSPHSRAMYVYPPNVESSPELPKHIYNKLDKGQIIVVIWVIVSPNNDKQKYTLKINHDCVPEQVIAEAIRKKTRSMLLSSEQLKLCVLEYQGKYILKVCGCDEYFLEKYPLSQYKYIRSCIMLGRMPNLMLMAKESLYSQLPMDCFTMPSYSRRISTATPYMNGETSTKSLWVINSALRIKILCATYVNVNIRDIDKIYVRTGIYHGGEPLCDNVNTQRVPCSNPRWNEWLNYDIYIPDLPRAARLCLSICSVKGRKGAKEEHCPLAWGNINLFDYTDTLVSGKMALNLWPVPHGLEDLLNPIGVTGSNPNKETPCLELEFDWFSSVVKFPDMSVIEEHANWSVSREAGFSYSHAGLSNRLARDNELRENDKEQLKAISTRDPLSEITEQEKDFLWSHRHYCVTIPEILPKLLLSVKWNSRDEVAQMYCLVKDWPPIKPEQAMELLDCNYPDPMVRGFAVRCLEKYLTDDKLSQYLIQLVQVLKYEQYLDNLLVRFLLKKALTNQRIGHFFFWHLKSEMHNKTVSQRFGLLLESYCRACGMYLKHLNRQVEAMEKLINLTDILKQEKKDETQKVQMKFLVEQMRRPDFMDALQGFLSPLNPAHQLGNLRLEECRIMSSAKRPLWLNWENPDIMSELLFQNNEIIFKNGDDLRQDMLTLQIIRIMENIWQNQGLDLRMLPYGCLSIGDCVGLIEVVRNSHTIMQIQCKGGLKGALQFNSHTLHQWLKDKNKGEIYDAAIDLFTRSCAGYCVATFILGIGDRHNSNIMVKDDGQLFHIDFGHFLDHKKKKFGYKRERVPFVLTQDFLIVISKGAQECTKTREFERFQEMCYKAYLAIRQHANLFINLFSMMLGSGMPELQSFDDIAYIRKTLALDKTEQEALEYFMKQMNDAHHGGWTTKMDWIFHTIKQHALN
Sequence of PI3K α (P27986 whole entry partner): as the sequence (P27986 whole entry partner, canonical isoform) above
Protocol: as §2, §3

Metabolic stability in liver microsomes, Human (percent parent compound remaining) ([1]; 1 μM test item, 60 minutes, NADPH): 54.5%
fold greater metabolic stability in human liver microsomes than its enantiomer ([1]; A1 vs A2, B1 vs B2): ~5 fold
inhibition at 1 µM (PI3K β): 47.9%
Fold-Selectivity PI3Kβ (PI3K β; Enzyme, versus PI3Kδ): >54 fold
Metabolic stability in liver microsomes, Mouse (percent parent compound remaining) [2]: 46.1%
inhibition at 1 µM (PI3K α): 8.91%
Fold-Selectivity PI3Kα (PI3K α; Enzyme, versus PI3Kδ): >1000 fold
SMILES: CC(C)Oc1ccc(-c2nn([C@@H](C)c3oc4ccccc4c(=O)c3-c3cccc(F)c3)c3ncnc(N)c23)cc1F [Compound A1, (S)-2-(1-(4-amino-3-(3-fluoro-4-isopropoxyphenyl)-1H-pyrazolo[3,4-d]pyrimidin-1-yl)ethyl)-3-(3-fluorophenyl)-4H-chromen-4-one]
Caspase-3 activity (leukemic cells): dose-dependently induced Caspase-3 activity
cell viability / proliferation [3]: dose dependent reduction in proliferation; also recorded: Dose dependent reduction in cell viability
